Assay [1] deals with Saccharomyces cerevisiae. Put plainly: Antifungal activity against yeast AD1-8u expressing Candida albicans CaMdr1p by agar disk diffusion assay. Also: test concentration or dose not given here. The assay is classed as functional.
Assay [2] deals with Candida albicans. Put plainly: Binding affinity to Candida albicans CaMdr1p expressed in yeast AD1-8u.
The subject of assay [3] is Saccharomyces cerevisiae. The experiment in a line: Antifungal activity against yeast AD1-8u expressing Candida albicans CaCdr1p by agar disk diffusion assay. The assay is classed as functional.
The test system of assay [4] is Candida albicans. The experiment in a line: Binding affinity to Candida albicans CaCdr1p expressed in yeast AD1-8u.

The structures appear in SMILES notation. Calls of active or inactive are those of the source. No rule for the calls is given here.
For IZ in this document: test concentration or dose not given here.

For the molecule `C[C@@H]1O[C@@H](O[C@H]2C[C@@H](O)[C@]3(CO)[C@H]4[C@H](O)C[C@]5(C)[C@@H](C6=CC(=O)OC6)CC[C@]5(O)[C@@H]4CC[C@]3(O)C2)[C@H](O)[C@H](O)[C@H]1O` [OUABAIN], the “inhibition zone (IZ)” value in assay [1] and in assay [3] was 0 cm in each case. Also, the result in assay [2] and in assay [4] was inactive.

As for `Oc1cccc2cccnc12` [OXYQUINOLINE], the “inhibition zone (IZ)” value in assay [1] and in assay [3] was 0 cm each time. For the same molecule, the result in assay [2] and in assay [4] was inactive.

Regarding `CC(=O)O[C@H]1C(=O)[C@@]2(C)[C@H]([C@H](OC(=O)c3ccccc3)[C@]3(O)C[C@H](OC(=O)[C@H](O)[C@@H](NC(=O)c4ccccc4)c4ccccc4)C(C)=C1C3(C)C)[C@]1(OC(C)=O)CO[C@@H]1C[C@@H]2O` [PACLITAXEL], the “inhibition zone (IZ)” value in assay [1] and in assay [3] was 0 cm each time. The result in assay [2] and in assay [4] was inactive.

As to `CC(=O)[C@H]1CC[C@H]2[C@@H]3CCC4=CC(=O)CC[C@]4(C)[C@H]3CC[C@]12C` [PROGESTERONE], the “inhibition zone (IZ)” value in assay [1] and in assay [3] was 0 cm throughout. For the same molecule, the result in assay [2] and in assay [4] was inactive.

`CCC(=O)Nc1ccc(Cl)c(Cl)c1` [PROPANIL]: the “inhibition zone (IZ)” value in assay [1] is recorded as 0.9 cm; in assay [3], 0.3 cm. The outcome in assay [2] and in assay [4] was Active.

As to `O=c1c(O)c(-c2ccc(O)c(O)c2)oc2cc(O)cc(O)c12` [QUERCETIN], the “inhibition zone (IZ)” value in assay [1] and in assay [3] was 0 cm in each case. For the same molecule, the result in assay [2] and in assay [4] was inactive.

On to `C=C[C@H]1CN2CC[C@H]1C[C@@H]2[C@@H](O)c1ccnc2ccc(OC)cc12` [QUINIDINE], for which the “inhibition zone (IZ)” value in assay [1] and in assay [3] was 0.8 cm throughout. For the same molecule, the result in assay [2] and in assay [4] was Active.

In the case of `COC(=O)c1ccccc1-c1c2ccc(=N)cc-2oc2cc(N)ccc12.Cl` [RHODAMINE123], the “inhibition zone (IZ)” value in assay [1] stood at 0.1 cm; in assay [3], 1 cm. The result in assay [2] was inactive. Also, in assay [4], the outcome was Active.

Take `CC/N=c1\cc2oc3cc(NCC)c(C)cc3c(-c3ccccc3C(=O)OCC)c-2cc1C.Cl` [RHODAMINE 6G HYDROCHLORIDE]: the entries for the “inhibition zone (IZ)” value in assay [1] and in assay [3] were 0.2 cm and 0.8 cm, respectively. In addition, the outcome in assay [2] was inactive. For the same molecule, the result in assay [4] was Active.

`CO[C@H]1/C=C/O[C@@]2(C)Oc3c(C)c(O)c4c(O)c(c(/C=N/N5CCN(C)CC5)c(O)c4c3C2=O)NC(=O)/C(C)=C\C=C\[C@H](C)[C@H](O)[C@@H](C)[C@@H](O)[C@@H](C)[C@H](OC(C)=O)[C@@H]1C` [RIFAMPIN]: the “inhibition zone (IZ)” value in assay [1] and in assay [3] was 0 cm each time. In addition, the outcome in assay [2] and in assay [4] was inactive.

Take `CC/C(=C(\c1ccccc1)c1ccc(OCCN(C)C)cc1)c1ccccc1` [TAMOXIFEN]: the figures for the “inhibition zone (IZ)” value in assay [1] and in assay [3] were 0.2 cm and 0.7 cm, respectively. In addition, the outcome in assay [2] was inactive. Moreover, the result in assay [4] was Active.

With `CN(C/C=C/C#CC(C)(C)C)Cc1cccc2ccccc12` [TERBINAFINE], the “inhibition zone (IZ)” value is 0 cm in assay [1] and 1.2 cm in assay [3]. Also, in assay [2], the result was inactive. Also, the outcome in assay [4] was Active.

Regarding `CC(=O)Nc1c2sscc-2n(C)c1=O` [THIOLUTIN], the entries for the “inhibition zone (IZ)” value in assay [1] and in assay [3] were 0.7 cm and 0 cm, respectively. In assay [2], the result was Active. The outcome in assay [4] was inactive.

As to `CC[C@@]1(O)C(=O)OCc2c1cc1n(c2=O)Cc2cc3c(CN(C)C)c(O)ccc3nc2-1` [TOPOTECAN], the figures for the “inhibition zone (IZ)” value in assay [1] and in assay [3] were 0.2 cm and 0.5 cm, respectively. Further, the outcome in assay [2] was inactive. For the same molecule, in assay [4], the result was Active.

As for `c1ccc(C(c2ccccc2)(c2ccccc2)c2ncc[nH]2)cc1` [TRITYL IMIDAZOLE], the “inhibition zone (IZ)” value in assay [1] is listed as 0 cm; in assay [3], 1.3 cm. Also, the result in assay [2] was inactive. Besides, the result in assay [4] was Active.

Turning to `CC[C@]1(O)C[C@@H]2CN(CCc3c([nH]c4ccccc34)[C@@](C(=O)OC)(c3cc4c(cc3OC)N(C)[C@H]3[C@@](O)(C(=O)OC)[C@H](OC(C)=O)[C@]5(CC)C=CCN6CC[C@]43[C@@H]65)C2)C1` [VINBLASTINE], the entries for the “inhibition zone (IZ)” value in assay [1] and in assay [3] were 0 cm and 0.6 cm, respectively. Further, the result in assay [2] was inactive. The result in assay [4] was Active.

Turning to `C[C@@H](c1ncncc1F)[C@](O)(Cn1cncn1)c1ccc(F)cc1F` [VORICONAZOLE], the “inhibition zone (IZ)” value in assay [1] amounted to 0.8 cm; in assay [3] it was 1.9 cm. For the same molecule, the result in assay [2] and in assay [4] was Active.

As to `COC(=O)[C@@H]1[C@H]2C[C@H]3c4[nH]c5ccccc5c4CCN3C[C@@H]2CC[C@@H]1O.Cl` [YOHIMBINE HYDROCHLORIDE], the “inhibition zone (IZ)” value in assay [1] and in assay [3] was 1.3 cm in each case. Moreover, the result in assay [2] and in assay [4] was Active.

Values taken from ChEMBL document CHEMBL1275276, “Analysis of physico-chemical properties of substrates of ABC and MFS multidrug transporters of pathogenic Candida albicans” (2010).
